Consider 79 compounds from the METLIN SMRT retention time set (Domingo-Almenara et al. 2019).

This series can be described thus: gradient 5% acetonitrile 3 min, to 50% in 2 min, to 85% in 15 min, held 3 min, 100 µL/min. The settings on record: column: Zorbax Extend-C18 2.1 x 50 mm; eluents: water / acetonitrile, 0.1% formic acid. The gist of the method: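 Retention time was recorded from adduct peaks, which were picked computationally and each inspected manually. Pure standards ran in mixtures of ~100 molecules on HPLC coupled to a quadrupole time-of-flight mass spectrometer, in positive and negative ionization mode, through a Zorbax Extend-C18 column (2.1 × 50 mm, 1.8 μm) at 100 μL/min. Eluents were water and acetonitrile, each with 0.1% formic acid.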
`COc1ccc(CN2CCC(C3CCNC3)CC2)c(OC)c1` (centres undefined) displayed an RP-LC retention time of 548 s.

The compound `O=C(Cn1cc(-c2ccccc2)c2ncnc(N3CCOCC3)c21)N1CCCC1` displayed an RP-LC retention time of 651 s.

On to `CC(C)c1nnc2n1CCN(C(=O)c1cc(-c3cccs3)[nH]n1)C2`, for which the RP-LC retention time is 628 s.

Compound `Cn1ccc2c(cc(C(=O)NCCCc3ccccc3)n2C)c1=O` yielded an RP-LC retention time of 736 s.

On to `CCOc1ccc2ncc(S(=O)(=O)c3ccc(OC)cc3)c(N3CCN(CC)CC3)c2c1`, for which the RP-LC retention time was found to be 660 s.

`O=C(COc1ccccc1)Nc1nnc(SCC(=O)N2CCCc3ccccc32)s1` showed an RP-LC retention time of 859 s.

Compound `Fc1cccc(CNc2nnc(-c3nnc(C4CC4)o3)c3ccccc23)c1` came in with an RP-LC retention time of 933 s.

As for `CNC(=O)c1cc(NC)nc2c(Cl)cccc12`, the RP-LC retention time was found to be 568 s.

On to `CC(C)c1noc(-c2cc(=O)n(CC(=O)NCc3ccc(F)cc3)c3ccccc23)n1`, for which the RP-LC retention time was 951 s.

Consider `O=S(=O)(c1ccc2c(c1)CCC2)N1CC(c2nc(CCOCc3ccccc3)no2)C1`, for which the RP-LC retention time was 1140 s.

`CCCCC(=O)N1CCC2(C1)C(=O)N(C)c1ccccc12` (centres undefined) gave an RP-LC retention time of 743 s.

With `CCN(CC)c1ccc(NC(=O)CSc2cc(N3CCCC3)ncn2)c(C)c1`, the RP-LC retention time stood at 600 s.

Compound `Cn1c(=O)c2ccn(CC(=O)N3CCN(c4ccccc4F)CC3)c2n(C)c1=O` returned an RP-LC retention time of 851 s.

With `CCc1ccc(C2=C(C)C(N3CCC(C(=O)NCCc4ccco4)CC3)=NS2(=O)=O)cc1`, the RP-LC retention time came to 882 s.

Compound `O=C(NCc1ccc(F)cc1)c1nnc(-c2ccc(S(=O)(=O)N3CCCCC3)cc2)o1` showed an RP-LC retention time of 1160 s.

With `CCOC(=O)c1cc2n(n1)CC(C)(C(=O)NCc1ccc(C)cc1)N(C1CC1)C2=O` (centres undefined), the RP-LC retention time was 786 s.

`CCc1nnc(-c2ccc3ccn(CC(=O)NCc4cccs4)c3c2)o1` gave an RP-LC retention time of 790 s.

`CCC(C)c1ccccc1NC(=O)C1CCN(C(=O)C(C)(C)C)CC1` (centres undefined): the RP-LC retention time turned out to be 829 s.

For the compound `Cc1ccc2c(c1)N(Cc1ccc(F)cc1)N=C(C(=O)N1CCOCC1)S2(=O)=O`, the RP-LC retention time was determined as 839 s.

For `Cn1nc(N2CCC(NC(=O)Cc3c[nH]c4ccccc34)C2)ccc1=O` (centres undefined), the RP-LC retention time worked out at 632 s.

Take `O=C(COc1ccc(F)c(F)c1)N1CCC(Nc2cccnc2)C1` (centres undefined): the RP-LC retention time turned out to be 604 s.

In the case of `COC(C)C(O)(C(=O)OCC1=CCN2CC[C@H](O)[C@@H]12)C(C)C` (some centres undefined), the RP-LC retention time was 644 s.

`COc1ccc(NC(=O)N2CCC(n3cnc4ccc(Cl)cc4c3=O)CC2)cc1` yielded an RP-LC retention time of 802 s.

`Fc1ccc(-c2nnc(Cc3nc(-c4ccccc4Cl)no3)o2)cc1` yielded an RP-LC retention time of 995 s.

In turn, `COc1ccc2c(c1)c(CN1CCC(N3C[C@H](OC)[C@@H]3c3cccnc3)CC1)cn2C` yielded an RP-LC retention time of 579 s.

`Cc1cccc(C)c1Nc1c(-c2ccc(N3CCOCC3)cc2)nc2ncccn12` returned an RP-LC retention time of 721 s.

`COc1ccc(-c2ncc3c(n2)CCN(S(=O)(=O)c2ccc(C)cc2C)C3)cc1` showed an RP-LC retention time of 1140 s.

`CCc1cccc(NS(=O)(=O)c2cc(-c3[nH]ncc3C(=O)N3CCCCC3)oc2C)c1` yielded an RP-LC retention time of 819 s.

Turning to `CCC1CN2C=NC(N3CCN(C(=O)c4nn(C)c5ccccc45)CC3)=CC2=N1` (centres undefined), the RP-LC retention time came out at 636 s.

`CCC(=O)N1CCc2cc(N3CC(C(=O)Nc4ccc(OC)cc4)CC3=O)ccc21` (centres undefined) yielded an RP-LC retention time of 714 s.

`CCCn1cc(C(=O)NCc2ccc(F)cc2F)c(S(=O)(=O)N2CCC(C)CC2)n1`: the RP-LC retention time is 1100 s.

As for `CC(C)c1nnc(-c2ccc(S(=O)(=O)N3CCCCC3)o2)o1`, the RP-LC retention time came to 890 s.

`c1ccc(-n2ccnc2SCc2nc(-c3ccc4c(c3)OCO4)no2)cc1` gave an RP-LC retention time of 790 s.

`COc1cccc(-c2nc(-c3ccc4c(c3)nc(C)c(=O)n4C)no2)c1` came in with an RP-LC retention time of 843 s.

As for `COCCNC(=O)C1CCN(c2cnn(Cc3ccccc3)c(=O)c2)CC1`, the RP-LC retention time was 661 s.

In turn, `O=C(Cc1cccs1)N1CCC(Nc2ncnc3c2CCC3)CC1` registered an RP-LC retention time of 590 s.

`Cc1cc2[nH]c(C(=O)Nc3cc(F)c(F)cc3F)c(CN3CCCC3)c2s1` showed an RP-LC retention time of 864 s.

For `COc1cccc(C(c2sc3ncnn3c2O)N2CCN(C(=O)c3ccco3)CC2)c1` (centres undefined), the RP-LC retention time came to 642 s.

For `O=C(Cn1c(SCc2cccc(F)c2)nc2cccnc21)N1CCCC1`, the RP-LC retention time stood at 647 s.

As to `COC(=O)c1c(C)c(C(=O)C(C)N(C(=O)c2ccccc2Cl)C2CCCCC2)c(C)n1C` (centres undefined), the RP-LC retention time turned out to be 1160 s.

As for `COc1cc(-c2noc(Cn3ncn4nc(-c5ccccc5Cl)cc4c3=O)n2)cc(OC)c1OC`, the RP-LC retention time is 1060 s.

Take `CCn1ccc2cc(S(=O)(=O)N3CCC(C(=O)N4CCN(c5ccccc5)CC4)CC3)ccc21`: the RP-LC retention time was determined as 671 s.

As to `NS(=O)(=O)c1ccc(CCNC(=O)c2nc(Cn3nc(-c4ccc(F)cc4)ccc3=O)no2)cc1`, the RP-LC retention time came to 733 s.

Compound `CC1(C(=O)NCc2ccc(F)cc2)CN(S(C)(=O)=O)CC(=O)N1CCCc1ccccc1` (centres undefined) had an RP-LC retention time of 882 s.

Compound `O=C(NCCc1ccco1)c1ccc2c(c1)nc1n2CCCCC1` registered an RP-LC retention time of 611 s.

Turning to `COc1cccc(Cn2c(C)c(CNCc3ccccn3)c(C(=O)O)c2C)c1`, the RP-LC retention time amounted to 676 s.

Take `COC(=O)c1ncn2c1C(=O)N(c1cc(C)cc(C)c1)C(C)(C(=O)NC1CCCC1)C2` (centres undefined): the RP-LC retention time came to 734 s.

`Cn1nc(-c2nc(Cc3ccccc3)no2)c2c1CCN(C(=O)Nc1ccccc1)C2` came in with an RP-LC retention time of 905 s.

In turn, `O=C(Cc1ccsc1)N1CCC2(CC1)N=C(c1ccccc1)NO2` came in with an RP-LC retention time of 774 s.

`COc1ccc(NC(=O)Nc2nccn(-c3ccccc3)c2=O)cc1OC`: the RP-LC retention time is 784 s.

Consider `Cc1ccc(NS(=O)(=O)c2ccc(-c3nnc(C4CCC4)o3)o2)cc1F`, for which the RP-LC retention time was 962 s.

In turn, `CC(=O)Nc1ccc(SCC(=O)N(C(C)C)C(C)C)nn1` returned an RP-LC retention time of 675 s.

For the compound `CCCc1cc(=O)oc2cc(C)cc(OCC(=O)N[C@H](C(=O)O)C(C)C)c12`, the RP-LC retention time is 806 s.

Take `CC(C)CNC(=O)c1cn(-c2ccc(NC(=O)C(C)C)cn2)cn1`: the RP-LC retention time was 702 s.

In turn, `Cc1oc(C2CCN(S(=O)(=O)c3ccc(C#N)cc3)CC2)nc1C(=O)N1CCCC1` came in with an RP-LC retention time of 872 s.

Consider `O=S(=O)(c1ccc(-c2noc(-c3cccc(Br)c3)n2)cc1)N1CCCC1`, for which the RP-LC retention time is 1290 s.

For `COCCNS(=O)(=O)c1ccc(-c2c(C)noc2C)cc1`, the RP-LC retention time is 764 s.

As for `Cc1nc(SCC(=O)Nc2nc3ccccc3s2)c2c(=O)n(C)c(=O)n(C)c2n1`, the RP-LC retention time was determined as 793 s.

In turn, `O=c1[nH]cnc2scc(-c3ccc(Cl)cc3)c12` displayed an RP-LC retention time of 734 s.

As to `CCOC(=O)C1=C(C)NC(C)=C(C(=O)OCC)C1c1ccncc1`, the RP-LC retention time was found to be 564 s.

`O=C(Nc1ccccc1)C(=O)c1ccc[nH]1` returned an RP-LC retention time of 812 s.

`Cc1ccc(-c2noc(C3CCCN3C(=O)c3ccc(C(C)C)cc3)n2)cc1` (centres undefined): the RP-LC retention time was found to be 1210 s.

On to `O=C1CC2(CCCC2)CC(=O)N1CCNCC1COc2ccccc2O1` (centres undefined), for which the RP-LC retention time was 747 s.

`O=C(Nc1ccc2c(c1)N(S(=O)(=O)c1ccccc1)CCC2)c1ccccc1[N+](=O)[O-]`: the RP-LC retention time came to 926 s.

Compound `Cc1ccc(N2CC(c3noc(-c4ccc(F)cc4Cl)n3)CC2=O)cc1` (centres undefined) showed an RP-LC retention time of 1060 s.

The compound `COC(=O)c1ccccc1NC(=O)N(Cc1cc(=O)[nH]c2ccccc12)CC(C)C` showed an RP-LC retention time of 943 s.

As to `COc1cc(-c2nc(C3CC(=O)N(c4ccc(F)cc4)C3)no2)cc(OC)c1OC` (centres undefined), the RP-LC retention time amounted to 901 s.

Regarding `Cc1ccc(S(=O)(=O)N2CCCC(Cn3cnc4cccnc43)C2)cc1C` (centres undefined), the RP-LC retention time was determined as 827 s.

With `CS(=O)(=O)N[C@H]1C[C@@H]2C[C@H]1CN2C(=O)c1ccc(C(F)(F)F)s1`, the RP-LC retention time was found to be 663 s.

With `CCOc1ccccc1CNC(=O)CN1CCN(Cc2ccccc2F)C1=O`, the RP-LC retention time was found to be 854 s.

On to `CC(C)(C)c1ccc(C(=O)Nc2nnc(C3CC(=O)N(c4ccc(F)cc4)C3)o2)cc1` (centres undefined), for which the RP-LC retention time turned out to be 872 s.

`Cc1ccc(N2C(=O)CCS2(=O)=O)cc1S(=O)(=O)N1CCN(c2ccccn2)CC1` had an RP-LC retention time of 635 s.

In turn, `O=C(c1cnn(-c2cccc(F)c2)c1-n1cccc1)N1CCN(c2ccccn2)CC1` registered an RP-LC retention time of 664 s.

`Cn1cnnc1SCCNC(=O)c1cc(-c2ccc(F)cc2)c[nH]1` had an RP-LC retention time of 659 s.

Regarding `CCn1nccc1C(=O)N1CCC(c2noc(N)c2C)CC1`, the RP-LC retention time came to 622 s.

The compound `O=S(=O)(c1cccc(-c2cn3cc(Cl)ccc3n2)c1)N1CCCCCC1` gave an RP-LC retention time of 944 s.

`COCCNC(=O)N1CCCN(C2=NS(=O)(=O)C(c3ccc(C)cc3)=C2C)CC1` yielded an RP-LC retention time of 688 s.

In turn, `CCCCNC(=O)c1nc(Nc2ccccc2)c2ccccc2n1` gave an RP-LC retention time of 801 s.

Compound `CCOc1ccc2nc(NC3=NCN(Cc4cccnc4)CN3)nc(C)c2c1` showed an RP-LC retention time of 580 s.
